# “Also recorded” adds a separate entry of the source.
# Legend:
# [1] = system: activity-based anorexia (ABA) mice; assay: Activity-based anorexia (ABA) model; type: in vivo, mouse
# Description: The importance of AgRP neurons in psychiatric conditions such as anorexia was further underscored by a recent report showing that chemogenetic activation of AgRP neurons in mice during ABA attenuated bodyweight loss with reduction in excessive physical activity (Hickey et al., 2022, Mol Psychiatry). […] Thus, peripubertal female mice were exposed to the ABA paradigm as previously described (Miletta, M. C. et al., 2020, Nature Metabolism, 2:1204-1211). Mice were singly housed at postnatal day 36 (P36) with ad libitum access to food, water, and a running wheel. After 4 days of acclimation at P40, mice were food restricted with free access to food for only 2 h daily for 3 days. At P40 and before the onset of food restriction, mice received first intraperitoneal (i.p.) injection of Bobcat339 or vehicle, with second and third injections performed at P47 and P54, respectively (FIG. 17A).
# (§1) Bobcat339 powder (Sigma-Aldrich, SML2611) was freshly dissolved in DMSO (vehicle) at a concentration of 50 mg/mL and filtered through a 0.22 micron. It was further diluted with 1×PBS to a final concentration of 0.5 mg/mL before injections. Mice were injected intraperitoneally with Bobcat339 at 1 mg/kg, 2.5 mg/kg, or 4 mg/kg.
# On P36, animals were single housed with free access to food and water and 24 h access to a running wheel. After 4 days of acclimation, on P40, all food was removed from the cage and returned only for 2 h daily (free food access from 19:00 to 21:00) and 24 h access to a running wheel for 3 days. On P43, 24 h ad libitum access to food was returned and the running wheel access was blocked to allow the animals to recover. The animals were allowed to recover for at least 1 week before undergoing behavioral testing. Continuous multiday analysis of running wheel activity was recorded using VitalView Data Acquisition System software version 5.1 (Starr Life Science). Food intake was measured after measurement of the food pellets before and after the 2 h food restriction. Body weight was monitored in the morning. Body composition was assessed using EchoMRI analysis.
# [2] = system: AGRP, NPY, and VGAT; assay: AGRP, NPY and VGAT expression in the ARC of mice; type: in vivo, mouse; details: Bobcat339 vs. vehicle mice
# Experimental: The GFP construct used for tagging AgRP neurons labels almost exclusively the perikaryon. The presence of AGRP, NPY, and VGAT outside the perikarya reflected the fact that these fast-firing neurons transport their neuromodulatory products rabidly to the neuronal processes.
# as §1
# Total RNAs were extracted from neuronal cells or homogenized hypothalamic arcuate nucleus tissue samples using PureLink RNA Mini Kit (Ambion, 12183025). cDNA was synthesized using PrimeScript RT Reagent Kit in a 20 μl reaction containing 0.5-1 μg of total RNA. Real-time quantitative PCR was performed in a 15 μl reaction containing 0.5-1 μl of cDNA using SsoAdvanced Universal SYBR Green Supermix in a Bio-Rad iCycler. Specificity was verified by melting curve analysis. The Ct values of each sample were used in the post-PCR data analysis. […]
# The immunofluorescence for brain slices was conducted using previous methods (18). […] The sections were coverslipped and scoped using a Keyence BZ-X700 fluorescence microscope. The fluorescence signals from GFP in AgRP neurons were detected without immunostaining.
# [3] = system: TET3; assay: TET3 protein in mouse peritoneal macrophages; type: cell-based; details: 10 μM
# Experimental: For cultured mouse peritoneal macrophages, cells were primed with 30 ng/ml of TGF-β1 (R&D Systems, 7666-MB0-005) for 48 h (to increase TET3 expression) before Bobcat339 treatment. Bobcat339 (or DMSO) was added at a final concentration of 10 μM, followed by RNA and protein extraction at time points indicated in the figure legends.
# Cells were homogenized in situ using a pipette tip in 2×SDS-sample buffer with 10% β-mercaptoethanol at RT followed by heating at 100 °C for 5 min with occasional vortexing. The samples were loaded onto a 4-15% gradient SDS gel (Bio-rad, 456-8086) (10 μL/well) and transferred to nitrocellulose membranes, followed by Western blot analysis. The antibodies used were anti-TET3 (diluted at 1:1000, GeneTex, GTX121453 for human; diluted at 1:1000, Active Motif, 61395 for mouse), anti-TET2 (diluted at 1:1000, Proteintech, 21207-1-AP for human/mouse), anti-TGF-β1 (diluted at 1:1000, Abcam, ab215715 for human), anti-Lin28A (diluted at 1:1000, Cell Signaling, 3978S), and HRP-conjugated anti-GAPDH (dilution 1:5000; Proteintech, HRP-60004). The secondary antibody was HRP-linked Anti-rabbit IgG (dilution 1:10,000; Rockland, 611-1322).
# [4] = system: TET3 mRNA; assay: TET3 mRNA in THP-1 cells; type: cell-based, human; details: THP-1, 10 μM, 24 h
# Experimental: Bobcat339 Treatment of Cultured Cells Bobcat339 powder (Sigma-Aldrich, SML2611) was freshly dissolved in DMSO at a concentration of 5 mM and filtered through a 0.22 micron. Cells grown at a density of 80-90% were incubated in growth media with vehicle (DMSO) or Bobcat339 at a final concentration of 10 μM for 24 h, followed by RNA and protein extraction.
# Total RNAs were extracted from cells using PureLink RNA Mini Kit. 0.5-1 μg total RNA was reverse transcribed to cDNA in a reaction volume of 20 μL using PrimeScript RT Reagent Kit. Real-time quantitative PCR was performed in a 15 μL reaction volume containing 0.5-1 μL of cDNA using SsoAdvanced Universal SYBR Green Supermix in a Bio-Rad iCycler. Gene expression levels were normalized against RPLP0.
structure (smiles),measurement,setting,value
"Nc1nc(=O)n(-c2cccc(-c3ccccc3)c2)cc1Cl [Bobcat339, 4-Amino-1-[1,1′-biphenyl]-3-yl-5-chloro-2(1H)-pyrimidinone]",lethality in the ABA model,[1]; ABA,diminished lethality
same,"body weight, daily food intake, and running wheel account","[1]; ABA, acclimation",no differences
same,body weight,"[1]; ABA, food restriction",able to maintain their body weight throughout the experiment
same,food intake,"[1]; ABA, food restriction",increased feeding; also recorded: a significant increase in food intake
same,wheel running,"[1]; ABA, food restriction",decreased compulsive running; also recorded: decline in compulsive wheel running
same,body composition,[1]; end of the recovery period,No differences in body composition
same,onset of appetite-stimulating and anti-stress effects,[1]; i.p.,≤ 24 h
same,duration of appetite-stimulating and anti-stress effects,[1]; single i.p. injection,lasted for at least one week
same,therapeutic effect in a mouse model of anorexia,[1]; summary,elicited therapeutic effects in a mouse model of anorexia
same,"AGRP, NPY, and VGAT protein in the ARC",[2],"increased productions of AGRP, NPY, and VGAT; also recorded: a marked increase in their expressions"
same,"Agrp, Npy and Slc32a1 mRNA in the ARC",[2],"Increases in the mRNA levels of Agrp, Npy and Slc32a1; also recorded: increased expressions of Agrp, Npy, and Slc32a1"
same,TET3 protein,[3],downregulated
same,TET3 mRNA,[4],no significant difference in expression between the groups

# Reference: US20260355199A1, “COMPOSITIONS AND METHODS FOR TREATING OR PREVENTING NONALCOHOLIC STEATOHEPATITIS (NASH), ANOREXIA, DEPRESSION, ENDOMETRIOSIS, AND OTHER DISEASES OR DISORDERS” (priority 2022, published 2026)
